Results from patent US20260345593A1, “ORAL FORMULATION OF N-PYRIDINYL ACETAMIDE DERIVATIVE FOR TREATING INTERSTITIAL LUNG DISEASE” (AstraZeneca AB, priority 2022, published 2026).

Columns and labels:
healthy subjects [1] = test: Example 1 Part 1 (SAD): safety in healthy subjects; format: in vivo, human
Experimental: Part 1 comprises a Screening Period of a maximum of 6 weeks. This is followed by a Treatment Period during which subjects are resident at the Clinical Unit from 1 day before investigational medicinal product (IMP) administration (Day −1) until at least 72 hours after IMP administration (Day 4). Subjects receive a single oral dose of AZD5055 or placebo on Day 1. This is followed by a Follow-up Visit within 6±1 day after the IMP dose.
(§1) The study was conducted in healthy male and healthy female subjects of non-childbearing potential with suitable veins for cannulation or repeated venipuncture. […] Also, the subjects were aged 18 to 55 years inclusive for men and women in Part 1 and only men in Part 2. For female subjects in Part 2, the age range was 18 to 49 years inclusive.
(§2) In Part 1 of the study, 3 dose levels of AZD5055 were investigated in 3 cohorts. Each cohort included 8 subjects. Within each cohort, 6 subjects were randomized to receive AZD5055, and 2 subjects were randomized to receive placebo. In Part 2 of the study, 3 dose levels of AZD5055 were investigated in 3 cohorts. In each cohort, 9 subjects were randomized to receive AZD5055, and 3 subjects were randomized to receive placebo.
(§3) Safety endpoints included adverse events; vital signs (supine blood pressure, pulse, respiratory rate, and body temperature); 12-lead ECG, 12-lead dECG, telemetry, physical examinations, clinical laboratory assessments (hematology, clinical chemistry [including serum creatinine and creatine phosphokinase], urinalysis [including protein and albumin creatinine ratios], and cardiac biomarkers [including cardiac Troponin T (cTNT), cardiac Troponin I; (cTNI), and B type natriuretic peptide]), and peripheral oxygen saturation (SpO2).
(§4) All safety data (scheduled and unscheduled) were presented in the data listings. Continuous variables were summarized using descriptive statistics (n, mean, standard deviation, min, median, max) by treatment. Categorical variables were summarized in frequency tables (frequency and proportion) by treatment (both Parts 1 and 2). The analysis of the safety variables was based on the safety analysis set. Adverse events were summarized by System Organ Class (SOC) and Preferred Term (PT) using Medical Dictionary for Regulatory Activities vocabulary. Furthermore, listings of serious adverse events (SAEs) and adverse events leading to the discontinuation of IMP (DAEs) were made and the number of subjects who had any adverse events (AEs), SAEs, DAEs and AEs with severe intensity were summarized. Adverse events that occur before dosing were reported separately. Tabulations and listings of data for ECG, vital signs, AEs, and clinical laboratory tests, measurements were presented.

β-catenin reporter = β-catenin reporter assay, rodent cells (Bunyard 2019); read-out: in vitro IC50; cited from earlier work
healthy subjects [2] = test: Example 1 Part 2 (MAD): safety in healthy subjects; format: in vivo, human
Experimental: Part 2 comprises a Screening Period of a maximum of 6 weeks. This is followed by a treatment period during which subjects are resident at the Clinical Unit from 1 day before IMP administration (Day −1) until at least 72 hours after the last dose given on Day 16 (Day 19). Subjects are dosed for a total of 15 days and receive a single once daily morning dose of AZD5055 or placebo on Day 1 and on Days 3 through Day 16, with no dosing on Day 2. This is followed up a Follow-up Visit within 6±1 day after the IMP dose, and an additional Follow-up Visit within 29±2 days after the last IMP dose.
For cohorts with QD dosing regimens, the Screening Period is followed by a Treatment Period during which subjects are resident at the Clinical Unit from 1 day before IMP administration (Day −1) until at least 72 hours after the last dose given on Day 16 (Day 19). Subjects are dosed for a total of 15 days, receiving a single QD morning dose of AZD5055 or placebo on Day 1 and on Days 3 through Day 16.
For cohorts with BID dosing regimens, the Screening Period is followed by a Treatment Period during which subjects are resident at the Clinical Unit from 1 day before IMP administration (Day −1) until at least 72 hours after the last dose given on Day 16 (Day 19).
Subjects are dosed for a total of 15 days, receiving a single morning dose of AZD5055 or placebo on Day 1 and Day 16, and repeated BID dosing on Day 3 through Day 15, 12 hours (±30 minutes) apart.
For both cohorts, the Treatment Period is followed by a Follow-up Visit within 6±1 day after the last IMP dose, and an additional Follow-up Visit within 29±2 days after the last IMP dose.
as §1, §2, §3, §4

CYP3A4 = test: Example 1: 4-β-hydroxy-cholesterol levels in blood (CYP3A4 activity); format: in vivo, human; conditions: healthy subjects
Excerpt: Change from baseline in 4-β-hydroxy-cholesterol levels in blood.
Plasma 4-β-hydroxy-cholesterol levels at baseline and the last day of dosing were statistically analyzed using a linear mixed model analysis of covariance with treatment as a fixed effect and the baseline concentration of 4-β-hydroxy-cholesterol as covariate.

[3] = Part 1, across all AZD5055 doses
[4] = Part 2, across all AZD5055 doses

SMILES: Cc1cc(-c2nccc3c2ccn3CC(=O)Nc2ccc(-c3cnccn3)cn2)ccn1 [AZD5055, 2-[4-(2-methyl-4-pyridyl)pyrrolo[3,2-c]pyridin-1-yl]-N-(5-pyrazin-2-yl-2-pyridyl)acetamide]
- AEs possibly related to AZD5055 (healthy subjects [1]; Part 1): dizziness, ventricular tachycardia, wheezing, upper abdominal pain, vomiting, and nausea
- clinical laboratory results, vital signs, physical examinations, ECGs (healthy subjects [1]; Part 1): No clinically relevant trends
- trends for AEs by SOC or PT (healthy subjects [1]; Part 1): no notable trends
- subjects with at least one AE (healthy subjects [1]; [3]): 4 subjects
- subjects with at least one AE possibly related to AZD5055 (healthy subjects [1]; [3]): 3 subjects
- subjects with at least one AE possibly related to AZD5055, percent (healthy subjects [1]; [3]): 16.7%
- subjects with at least one AE, percent (healthy subjects [1]; [3]): 22.2%
- AE intensity (healthy subjects [1]; Part 1, all AEs): Grade 1 (mild)
- AE outcome (healthy subjects [1]; Part 1, all AEs, by end of study): recovered/resolved by the end of the study
- SAEs, deaths, AEs leading to discontinuation or withdrawal (healthy subjects [1]; Part 1, all doses): no SAEs, deaths, or AEs leading to discontinuation of AZD5055 or withdrawal from the study
- tolerability (healthy subjects [1]; single oral suspension dose 7, 20 and 40 mg, n=6 per dose level): well-tolerated
- IC50 (β-catenin reporter): 0.64 nM
- tolerability (healthy subjects [2]; 5, 15 and 20 mg QD, oral suspension): well tolerated at all administered doses
- AE intensity, majority of AEs (healthy subjects [2]; Part 2): Grade 1 (mild)
- AEs leading to discontinuation of AZD5055 (healthy subjects [2]; Part 2): 3 AEs
- SAEs or deaths (healthy subjects [2]; Part 2): no SAEs or deaths
- clinical laboratory results, vital signs, physical examinations, ECGs (healthy subjects [2]; Part 2): No clinically relevant trends
- trends for AEs by SOC or PT (healthy subjects [2]; Part 2): no notable trends
- subjects with AE of ventricular tachycardia/non-sustained ventricular tachycardia, Grade 2, possibly related (healthy subjects [2]; Part 2, 5 mg dose): Two
- subjects with AE of coronavirus infection, Grade 1, not considered related (healthy subjects [2]; Part 2, 15 mg dose): One
- AEs possibly related to AZD5055, total (healthy subjects [2]; [4]): 7 AEs
- subjects with an AE of Grade 2 (moderate) intensity (healthy subjects [2]; [4]): 5 subjects
- subjects with at least one AE (healthy subjects [2]; [4]): 21 subjects
- AE outcome (healthy subjects [2]; Part 2, all AEs, by end of study): recovered/resolved by the end of the study
- possibly related AEs: breath odour (healthy subjects [2]; Part 2, number of AEs): 1
- possibly related AEs: dysgeusia (healthy subjects [2]; Part 2, number of AEs): 1
- possibly related AEs: headache (healthy subjects [2]; Part 2, number of AEs): 3
- possibly related AEs: photophobia (healthy subjects [2]; Part 2, number of AEs): 1
- possibly related AEs: ventricular tachycardia (healthy subjects [2]; Part 2, number of AEs): 2
- effect on 4-β-hydroxy-cholesterol (CYP3A4; 14 days of once daily dosing): no effect on 4-β-hydroxy-cholesterol
- effect on CYP3A4 activity (CYP3A4; inferred from 4-β-hydroxy-cholesterol): no significant effect on CYP3A4 activity
